Patent publication US12421212B2, “Substituted benzenecarboxamides as IL-17A modulators” (DiCE Alpha, Inc., priority 2019, dated 2025)

Target: T1, IL-17A/A (Homo sapiens, UniProt Q16552)
T1 construct: purchased Genscript Z03228
T1 sequence (Q16552 24-155): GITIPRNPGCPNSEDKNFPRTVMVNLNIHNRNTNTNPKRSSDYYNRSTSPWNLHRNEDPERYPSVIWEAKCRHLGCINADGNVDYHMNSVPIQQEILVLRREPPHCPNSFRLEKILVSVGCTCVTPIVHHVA
Assay: IL-17A/A HEK-Blue Cell Assay
Type: cell-based
Conditions: HEK-Blue IL-17A reporter cell line, SEAP readout at A630, 20 hours incubation with IL-17A/A, top concentration 10 uM, 1 uM or 0.3 uM; for IC50: read-out: IL-17A/A inhibition (pIC50) (converted)

SMILES | IC50 [µM] | IL-17A/A inhibition (pIC50)
CCn1nccc1C(=O)N[C@H](C(=O)Nc1ccc([C@H](C)[C@@H](NC(=O)c2cc(C#N)cs2)C(=O)N2CCN(C)CC2)cc1F)C1CCCCC1 [Compound 624] | 0.1 to 10 | –
CCC(=O)N[C@@H](C(=O)N1CCN(C)CC1)[C@@H](C)c1ccc(NC(=O)[C@@H](NC(=O)C(F)(F)C23CC(C2)C3)C2CCCCC2)c(F)c1 [Compound 625] | 0.1 to 10 | –
CCC(=O)N[C@@H](C(=O)N1CCN(C)CC1)[C@@H](C)c1ccc(NC(=O)[C@@H](NC(=O)C(=O)c2ccc(NS(C)(=O)=O)nc2)C2CCCCCC2)c(F)c1 [Compound 626] | 0.1 to 10 | –
CCn1nccc1C(=O)N[C@H](C(=O)Nc1ccc([C@H](C)[C@@H](NC(=O)NC2CCC2)C(=O)N2CCN(C)CC2)cc1F)C1CCCCC1 [Compound 628] | 0.1 to 10 | –
CCC(=O)N[C@@H](C(=O)N1CC(F)(F)C1)[C@@H](C)c1ccc(NC(=O)[C@@H](NC(=O)c2ccnn2CC)C2CCCCC2)c(F)c1 [Compound 629] | 0.1 to 10 | –
CCC(=O)N[C@H](Cc1ccc(NC(=O)[C@@H](NC(=O)c2conc2CC)[C@H]2CC[C@H](C)CC2)c(F)c1)C(=O)N1CCN(C)CC1 [Compound 630] | 0.1 to 10 | –
CCC(=O)N[C@@H](C(=O)N1CCN(C)CC1)[C@@H](C)c1ccc(NC(=O)[C@@H](NC(=O)c2csc3ccncc23)C2CCCCC2)c(F)c1 [Compound 631] | 0.1 to 10 | –
CCC(=O)N[C@@H](C(=O)N1CCN(C)CC1)[C@@H](C)c1ccc(NC(=O)[C@@H](NC(=O)c2ccnn2C(C)C)C2CCCCC2)cc1 [Compound 633] | 0.1 to 10 | –
CCn1nccc1C(=O)N[C@H](C(=O)Nc1ccc([C@H](C)[C@@H](NC(=O)c2ccc(C)s2)C(=O)N2CCN(C)CC2)cc1F)C1CCCCC1 [Compound 635] | 0.1 to 10 | –
CCn1nccc1C(=O)N[C@H](C(=O)Nc1ccc([C@H](C)[C@@H](NC(=O)NC)C(=O)N2CCN(C)CC2)cc1F)C1CCCCC1 [Compound 636] | 0.1 to 10 | –
CCC(=O)N[C@@H](C(=O)N1CCN(C)CC1)[C@@H](C)c1ccc(NC(=O)[C@@H](NC(=O)C(F)(F)c2ccccc2C#N)C2CCCCC2)c(F)c1 [Compound 638] | 0.1 to 10 | –
CCC(=O)N[C@@H](C(=O)N1CCN(C)CC1)[C@@H](C)c1ccc(NC(=O)[C@@H](NC(=O)c2ccnn2CC)C2CCCCC2)cc1 [Compound 639] | 0.1 to 10 | –
CCC(=O)N[C@H](Cc1ccc(NC(=O)[C@@H](NC(=O)C(F)(F)c2cccc(NS(C)(=O)=O)c2)C2CCCCC2)c(F)c1)C(=O)N1CCN(C)CC1 [Compound 642] | 0.1 to 10 | –
CCn1nccc1C(=O)N[C@H](C(=O)Nc1ccc([C@H](C)[C@@H](NC(=O)CC(F)(F)F)C(=O)N2CCN(C)CC2)cc1F)C1CCCCC1 [Compound 643] | 0.1 to 10 | –
CCC(=O)N[C@@H](C(=O)N1CCN(C)CC1)[C@@H](C)c1ccc(NC(=O)[C@@H](NC(=O)c2ccnn2CC)[C@H]2CC[C@H](C(F)(F)F)CC2)c(F)c1 [Compound 649] | 0.1 to 10 | –
CCC(=O)N[C@@H](C(=O)N1CCN(C)CC1)[C@@H](C)c1ccc(NC(=O)[C@@H](NC(=O)C(F)(F)C2CCN(C(C)=O)CC2)C2CCCCC2)c(F)c1 [Compound 653] | 0.1 to 10 | –
CCn1nccc1C(=O)N[C@H](C(=O)Nc1ccc([C@H](C)[C@@H](NC(=O)c2cc(C#N)n[nH]2)C(=O)N2CCN(C)CC2)cc1F)C1CCCCC1 [Compound 655] | 0.1 to 10 | –
CCn1nccc1C(=O)N[C@H](C(=O)Nc1ccc([C@H](C)[C@@H](NC(=O)c2cc(C)no2)C(=O)N2CCN(C)CC2)cc1F)C1CCCCC1 [Compound 656] | 0.1 to 10 | –
CCn1nccc1C(=O)N[C@H](C(=O)Nc1ccc([C@H](C)[C@@H](NC(=O)c2cncn2C)C(=O)N2CCN(C)CC2)cc1F)C1CCCCC1 [Compound 657] | 0.1 to 10 | –
CCC(=O)N[C@@H](C(=O)N1CCN(C)CC1)[C@@H](C)c1ccc(NC(=O)[C@@H](NC(=O)C(F)(F)C2CCOCC2)[C@H]2CC[C@H](C)CC2)c(F)c1 [Compound 660] | – | X3a (compounds were evaluated up to 0.3 uM and did not inhibit activity by >80%, however they showed some activity at 0.3 uM (less than 80% and more than 20%))
CCC(=O)N[C@@H](C(=O)O)[C@@H](C)c1ccc(NC(=O)[C@@H](NC(=O)c2ccnn2CC)[C@H]2CC[C@H](C)CC2)c(F)c1 [Compound 661] | – | X3b (compounds were evaluated up to 0.3 uM and inhibited activity at 0.3 uM by less than 20%)
CCC(=O)NC(C(=O)N1CCN(C(C)C)CC1)[C@@H](C)c1ccc(NC(=O)[C@@H](NC(=O)c2ccnn2CC)[C@H]2CC[C@H](C)CC2)c(F)c1 (some centres unmarked) [Compound 664] | – | X3b (compounds were evaluated up to 0.3 uM and inhibited activity at 0.3 uM by less than 20%)
CCC(=O)N[C@H](Cc1ccc(NC(=O)[C@@H](NC(=O)c2ccnn2C(C)C)C2CCC(F)(F)CC2)c(F)c1)C(=O)N1CCN(C)CC1 [Compound 672] | 0.1 to 10 | –
CCC(=O)N[C@@H](C(=O)N1CCN(C)CC1)[C@@H](C)c1ccc(NC(=O)[C@@H](NC(=O)C(F)(F)c2cccc(C#N)c2)C2CCOCC2)c(F)c1 [Compound 674] | 0.1 to 10 | –
CCn1nccc1C(=O)N[C@H](C(=O)Nc1ccc([C@H](C)[C@@H](NC(=O)c2cn[nH]c2)C(=O)N2CCN(C)CC2)cc1F)C1CCCCC1 [Compound 677] | 0.1 to 10 | –
CCn1nccc1C(=O)N[C@H](C(=O)Nc1ccc([C@H](C)[C@@H](NC(=O)c2cnc(C)n2C)C(=O)N2CCN(C)CC2)cc1F)C1CCCCC1 [Compound 678] | 0.1 to 10 | –
CCC(=O)N[C@@H](C(=O)N1CCN(C)CC1)[C@@H](CC)c1ccc(NC(=O)[C@@H](NC(=O)c2ccnn2CC)C2CCCCC2)cc1 [Compound 680] | 0.1 to 10 | –
CCn1nccc1C(=O)N[C@H](C(=O)Nc1ccc([C@H](C)[C@@H](NC(=O)c2c[nH]c(=O)[nH]2)C(=O)N2CCN(C)CC2)cc1F)C1CCCCC1 [Compound 681] | 0.1 to 10 | –

Further lines, with some results ahead:

IC50 [µM] | SMILES | IL-17A/A inhibition (pIC50)
0.1 to 10 | CCn1nccc1C(=O)N[C@H](C(=O)Nc1ccc(C[C@@H](NC(=O)c2ccnn2-c2ccc(=O)[nH]c2)C(=O)N2CCN(C)CC2)cc1F)C1CCCCC1 [Compound 623] | –
0.1 to 10 | CCC(=O)N[C@H](Cc1ccc(NC(=O)[C@@H](NC(=O)c2ccnn2CC)[C@H]2CC[C@H](C)CC2)c(F)c1)C(=O)N1CCN(C)CC1 [Compound 627] | –
0.1 to 10 | CCC(=O)N[C@H](Cc1ccc(NC(=O)[C@@H](NC(=O)c2coc3ccccc23)C2CCCCC2)c(F)c1)C(=O)N1CCN(C)CC1 [Compound 632] | –
0.1 to 10 | CCC(=O)N[C@H](Cc1ccc(NC(=O)C(NC(=O)c2ccnn2CC)C2CCc3ccccc3C2)c(F)c1)C(=O)N1CCN(C)CC1 (some centres unmarked) [Compound 634] | –
0.1 to 10 | CCC(=O)N[C@H](Cc1ccc(NC(=O)[C@@H](NC(=O)c2ccnn2C(C)C)C2CCCCC2)c(F)c1)C(=O)N1CCN(C)CC1 [Compound 637] | –
0.1 to 10 | CCC(=O)N[C@H](Cc1ccc(NC(=O)[C@@H](NC(=O)c2ccnn2CC)C2CCCCC2)c(F)c1)C(=O)N1CCN(Cc2ccccn2)CC1 [Compound 640] | –
0.1 to 10 | CCn1nccc1C(=O)N[C@H](C(=O)Nc1ccc([C@H](C)[C@@H](NC(=O)c2csnn2)C(=O)N2CCN(C)CC2)cc1F)C1CCCCC1 [Compound 644] | –
0.1 to 10 | CCC(=O)N[C@H](Cc1ccc(NC(=O)[C@@H](NC(=O)c2ccnn2CC)C2CCCCC2)c(F)c1)C(=O)N1CCN(C)CC1 [Compound 645] | –
0.1 to 10 | CCC(=O)N[C@H](Cc1ccc(NC(=O)[C@@H](NC(=O)c2ccnn2CC(C)C)C2CCCCC2)c(F)c1)C(=O)N1CCN(C)CC1 [Compound 646] | –
0.1 to 10 | CCC(=O)N[C@H](Cc1ccc(NC(=O)[C@@H](NC(=O)c2ccnn2CC)[C@@H](C)c2ccccc2)c(F)c1)C(=O)N1CCN(C)CC1 [Compound 647] | –
0.1 to 10 | CCC(=O)N[C@H](Cc1ccc(NC(=O)[C@@H](NC(=O)c2ccnn2CC(F)(F)F)C2CCCCC2)c(F)c1)C(=O)N1CCN(C)CC1 [Compound 648] | –
0.1 to 10 | CCn1nccc1C(=O)N[C@H](C(=O)Nc1ccc(C[C@@H](NC(=O)CC2CC2)C(=O)N2CCN(C)CC2)cc1F)C1CCCCC1 [Compound 650] | –
0.1 to 10 | CCC(=O)N[C@H](Cc1ccc(NC(=O)[C@@H](NC(=O)c2ccnn2CC)C2CCCCC2)c(F)c1)C(=O)N1CCN(C(C)C)CC1 [Compound 651] | –
0.1 to 10 | CCC(=O)NC(Cc1ccc(NC(=O)[C@@H](NC(=O)c2ccnn2CC)C2CCCCC2)c(F)c1)C(=O)N1CCN(Cc2cccnc2)CC1 (some centres unmarked) [Compound 652] | –
0.1 to 10 | CCn1nccc1C(=O)N[C@H](C(=O)Nc1ccc([C@H](C)[C@@H](NC(=O)CC#N)C(=O)N2CCN(C)CC2)cc1F)C1CCCCC1 [Compound 665] | –
0.1 to 10 | CCn1nccc1C(=O)N[C@H](C(=O)Nc1ccc([C@H](C)[C@@H](NC(=O)c2cc(C)n[nH]2)C(=O)N2CCN(C)CC2)cc1F)C1CCCCC1 [Compound 666] | –
0.1 to 10 | CCC(=O)N[C@H](Cc1ccc(NC(=O)[C@@H](NC(=O)c2ccnn2CC)C2CCCCC2)c(F)c1)C(=O)N1CC(N(C)C)C1 [Compound 667] | –
0.1 to 10 | CCC(=O)N[C@H](Cc1ccc(NC(=O)[C@@H](NC(=O)c2ccnn2CC(F)F)C2CCCCC2)c(F)c1)C(=O)N1CCN(C)CC1 [Compound 669] | –
0.1 to 10 | CCC(=O)N[C@@H](C(=O)N1CCN(Cc2ccccc2)CC1)[C@H](C)c1ccc(NC(=O)[C@@H](NC(=O)c2ccnn2CC)C2CCCCC2)c(F)c1 [Compound 670] | –
0.1 to 10 | CCC(=O)N[C@H](Cc1ccc(NC(=O)[C@@H](NC(=O)c2coc3ccc(OC)cc23)C2CCCCC2)c(F)c1)C(=O)N1CCN(C)CC1 [Compound 671] | –
0.1 to 10 | CCC(=O)N[C@H](Cc1ccc(NC(=O)[C@@H](NC(=O)c2ccnn2C2CC2)C2CCCCC2)c(F)c1)C(=O)N1CCN(C)CC1 [Compound 676] | –
0.1 to 10 | CCC(=O)N[C@H](Cc1ccc(NC(=O)[C@@H](NC(=O)c2ccnn2CC)C2CCCCC2)c(F)c1)C(=O)N1CCN(CCF)CC1 [Compound 679] | –
